# Patent publication US20250215030A1, “STAT MODULATORS AND USES THEREOF” (Recludix Pharma, Inc., priority 2022, published 2025)
# Target: T1, pSTAT3 (pY705-STAT3) (Homo sapiens, UniProt P40763)
# T1 construct: host or cells: cryopreserved PBMC
# Assay: MSD-pSTAT-PBMC Assay (pSTAT3, IL-6 stimulated)
# Type: cell-based
# Conditions: not given
# Summary of the method: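 Human PBMCs (50,000 cells/well for STAT3, 25,000 for STAT6) treated with compound 3 h, then stimulated 10 min with 10 ng/mL IL-6 or 1 ng/mL IL-4. Lysate pSTAT3 (pY705) or pSTAT6 (pY641) measured by MSD sandwich electrochemiluminescence. Signal minus unstimulated, normalized to DMSO; IC50 by variable-slope nonlinear regression.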
# T1 sequence (P40763 whole entry): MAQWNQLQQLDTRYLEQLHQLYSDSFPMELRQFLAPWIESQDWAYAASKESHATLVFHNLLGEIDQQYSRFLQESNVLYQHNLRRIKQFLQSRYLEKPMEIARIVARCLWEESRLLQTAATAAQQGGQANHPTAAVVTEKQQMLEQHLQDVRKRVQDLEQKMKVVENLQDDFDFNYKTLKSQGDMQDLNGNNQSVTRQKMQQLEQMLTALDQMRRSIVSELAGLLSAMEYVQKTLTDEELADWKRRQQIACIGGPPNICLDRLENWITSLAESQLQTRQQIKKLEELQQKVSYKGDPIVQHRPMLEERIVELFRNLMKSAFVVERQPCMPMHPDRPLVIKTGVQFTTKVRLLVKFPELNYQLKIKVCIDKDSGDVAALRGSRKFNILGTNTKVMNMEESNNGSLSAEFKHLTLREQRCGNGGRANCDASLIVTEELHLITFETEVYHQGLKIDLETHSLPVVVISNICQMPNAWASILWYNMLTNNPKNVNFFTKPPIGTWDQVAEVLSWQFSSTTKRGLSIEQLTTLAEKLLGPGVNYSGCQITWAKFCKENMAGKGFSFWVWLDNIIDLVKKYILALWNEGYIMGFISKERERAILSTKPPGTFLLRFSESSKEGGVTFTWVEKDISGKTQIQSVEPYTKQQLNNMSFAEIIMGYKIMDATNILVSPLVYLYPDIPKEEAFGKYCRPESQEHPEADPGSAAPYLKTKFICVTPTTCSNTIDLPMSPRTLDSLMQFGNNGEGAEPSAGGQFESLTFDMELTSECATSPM
row,SMILES,IC50
1,"CCCOC(=O)[C@H](C)NP(=O)(Oc1ccccc1)C(F)c1ccc2sc(C(=O)N[C@H]3C[C@@H]4C[C@@H]4C[C@H]4CC[C@@H](C(=O)N5CC(c6cnccc6N6CCC6)C5)N4C3=O)cc2c1 (single isomer, unassigned) [Compound 426]",< 0.1 µM
2,"CCCOC(=O)[C@@H](C)NP(=O)(Cc1ccc2sc(C(=O)N[C@H]3C[C@@H]4C[C@]4(C)C[C@H]4CC[C@@H](C(=O)N5CC(c6cccnc6)C5)N4C3=O)cc2c1)Oc1ccccc1 (stereo in doubt) [Compound 240, propyl(((2-(((3S,6S,7aR,8aS,9aR)-8a-methyl-5-oxo-3-(3-(pyridin-3-yl)azetidine-1-carbonyl)decahydro-1H-cyclopropa[d]pyrrolo[1,2-a]azocin-6-yl)carbamoyl)benzo[b]thiophen-5-yl)methyl)(phenoxy)phosphoryl)-L-alaninate]",< 0.1 µM
3,"CCCOC(=O)[C@H](C)NP(=O)(Oc1ccccc1)[C@@H](F)c1ccc2sc(C(=O)N[C@H]3C[C@H]4C[C@H]4C[C@H]4CC[C@@H](C(=O)N5CC(c6cnccc6N6CC[C@H]6COC)C5)N4C3=O)cc2c1 (stereo in doubt) [Compound 417, propyl(((R)-fluoro(2-(((3S,6S,7aS,8aR,9aR)-3-(3-(4-((S)-2-(methoxymethyl)azetidin-1-yl)pyridin-3-yl)azetidine-1-carbonyl)-5-oxodecahydro-1H-cyclopropa[d]pyrrolo[1,2-a]azocin-6-yl)carbamoyl)benzo[b]thiophen-5-yl)methyl)(phenoxy)phosphoryl)-L-alaninate]",< 0.1 µM

# Same assay, conditions: PBMC, compound 3 hrs, then 10 ng/mL IL-6 for 10 min; MSD pY705-STAT3; read-out: pSTAT3
row,SMILES,IC50
1,"Cn1cnnc1C1CN(C(=O)[C@@H]2CC[C@@H]3C[C@@H]4C[C@@H]4C[C@H](NC(=O)c4cc5cc(C(F)(F)P(=O)(OCCSC(=O)C(C)(C)C)OCCSC(=O)C(C)(C)C)ccc5s4)C(=O)N32)C1 [Compound 201, S,S′-((((difluoro(2-(((3S,6S,7aR, 8aS,9aR)-3-(3-(4-methyl-4H-1,2,4-triazol-3-yl)azetidine-1-carbonyl)-5-oxodecahydro-1H-cyclopropa[d]pyrrolo[1,2-a]azocin-6-yl)carbamoyl)benzo[b]thiophen-5-yl)methyl)phosphoryl)bis(oxy))bis(ethane-2,1-diyl)) bis(2,2-dimethyl-propanethioate)]",< 0.1 µM
2,"CCCOC(=O)[C@H](C)NP(=O)(Oc1ccccc1)C(F)c1ccc2sc(C(=O)N[C@H]3C[C@@H]4C[C@@H]4C[C@H]4CC[C@@H](C(=O)N5CC(c6cnccc6F)C5)N4C3=O)cc2c1 (stereo partly drawn) [Compound 263, propyl ((fluoro(2-(((3S,6S,7aS,8aR,9aR)-3-(3-(4-fluoropyridin-3-yl)azetidine-1-carbonyl)-5-oxodecahydro-1H-cyclopropa[d]pyrrolo[1,2-a]azocin-6-yl)carbamoyl)benzo[b]thiophen-5-yl)methyl)(phenoxy)phosphoryl)-L-alaniante]",< 0.1 µM
3,"CCOC(=O)[C@H](C)NP(=O)(Oc1ccccc1)C(F)(F)c1ccc2sc(C(=O)N[C@H]3C[C@@H]4C[C@@H]4C[C@H]4CC[C@@H](C(=O)N5CC(C(=O)N6CCOCC6)C5)N4C3=O)cc2c1 (stereo partly drawn) [Compound 192, ethyl ((difluoro(2-(((3S,6S,7aS, 8aR,9aR)-3-(3-(morpholine-4-carbonyl)azetidine-1-carbonyl)-5-oxodecahydro-1H-cyclopropa[d]pyrrolo[1,2-a]azocin-6-yl)carbamoyl)benzo[b]thiophen-5-yl)methyl) (phenoxy)phosphoryl)-L-alaninate]",> 3 µM
4,"COC(=O)[C@H](C)NP(=O)(Cc1ccc2sc(C(=O)N[C@H]3C[C@@H]4C[C@@H]4C[C@H]4CC[C@@H](C(=O)N5CC(C(=O)N6CCOCC6)C5)N4C3=O)cc2c1)Oc1ccccc1 (stereo partly drawn) [Compound 216, methyl (((2-(((3S,6S,7aS, 8aR,9aR)-3-(3-(morpholine-4-carbonyl)azetidine-1-carbonyl)-5-oxodecahydro-1H-cyclopropa [d]pyrrolo[1,2-a]azocin-6-yl)carbamoyl)benzo[b]thiophen-5-yl)methyl) (phenoxy)phosphoryl)-L-alaninate]",0.1 to 1 µM
